Converted amounts (≈) assume the structure as drawn. Where two headings read alike, the source gives them in different places. Starred links: 1 amine or outer side, 2 acyl side, 3 side chain; linkers in the order of their positions; H or OH if unused. Positions of bridges follow the written chain, without caps; N, C: chain ends. Residues, ends and D or L forms follow the SMILES beside them. *: point of attachment. C20 diacid = O=C(O)CCCCCCCCCCCCCCCCCCC(=O)*; γGlu = O=C(O)[C@H](CCC(=O)[*:2])N[*:1]
Legend:
[1] = target: T1, human amylin receptor (amylin 3(a) receptor: human calcitonin receptor + RAMP-3) (Homo sapiens, UniProt O60896+P30988); test: Assay (II)a functional CRE-luciferase assay, human amylin receptor; type: cell-based; conditions: Table 2; BHK amylin 3(a)-receptor/CRE-luc cells
T1 construct: expressed in transfected cells; host or cells: BHK570
T1 sequence (P30988 25-474): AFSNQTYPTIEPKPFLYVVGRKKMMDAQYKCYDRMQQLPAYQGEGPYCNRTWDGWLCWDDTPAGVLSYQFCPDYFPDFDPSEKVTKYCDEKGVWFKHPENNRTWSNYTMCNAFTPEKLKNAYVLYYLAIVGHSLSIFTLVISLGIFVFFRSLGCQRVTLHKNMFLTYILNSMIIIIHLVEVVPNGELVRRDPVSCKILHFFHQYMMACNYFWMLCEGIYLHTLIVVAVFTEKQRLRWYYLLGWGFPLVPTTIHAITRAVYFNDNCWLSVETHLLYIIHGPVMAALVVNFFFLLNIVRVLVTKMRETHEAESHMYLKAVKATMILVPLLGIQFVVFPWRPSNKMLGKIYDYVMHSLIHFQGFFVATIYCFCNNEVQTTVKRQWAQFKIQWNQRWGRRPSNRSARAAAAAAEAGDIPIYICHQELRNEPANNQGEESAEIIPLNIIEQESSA
T1 sequence (O60896 24-148 partner): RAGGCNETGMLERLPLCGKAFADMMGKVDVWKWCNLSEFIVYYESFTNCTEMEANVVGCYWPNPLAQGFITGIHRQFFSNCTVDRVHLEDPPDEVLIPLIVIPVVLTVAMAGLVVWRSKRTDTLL

[2] = target: T2, human calcitonin receptor (Homo sapiens, UniProt P30988); test: Assay (II)a functional CRE-luciferase assay, human calcitonin receptor; type: cell-based; conditions: Table 7; human calcitonin (CTa) receptor
T2 construct: expressed in transfected cells; host or cells: BHK570
T2 sequence (P30988 25-474): T1 sequence (P30988 25-474)

[3] = Assay (III) ThT fibrillation assay for physical stability; type: physicochemical
In short: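 Freshly prepared formulations, pH-adjusted, with 1 μM ThT; four or eight replicates incubated at 37 °C under 960 rpm orbital shaking. Fluorescence (ex 444/em 485 nm) read every 20 min; […]. Peptide concentration measured by RP-HPLC before and after the run.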

[4] = Assay (IV) determination of solubility; type: physicochemical
In short: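 Polypeptide in water (~500 nmol/ml) mixed 1:1 with 100 mM glycylglycine (pH 3.0–5.0) or bistrispropane (pH 6.0–8.0) buffers. Held 18 hours at room temperature, then centrifuged. Polypeptide remaining in solution quantified by HPLC.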

[5] = bistrispropane buffer, pH 6, pH 6.0, read-out: Solubility pH 6.0
[6] = bistrispropane buffer, pH 6.5, pH 6.5, read-out: Solubility pH 6.5
[7] = bistrispropane buffer, pH 7, pH 7.0, 18 hours at room temperature, Table 3, read-out: Solubility pH 7.0
[8] = bistrispropane buffer, pH 7, pH 7.0, Table 8, read-out: Solubility pH 7.0
[9] = bistrispropane buffer, pH 7, pH 7.0, read-out: Solubility pH 7.0
[10] = bistrispropane buffer, pH 7.5, pH 7.5, read-out: Solubility pH 7.5
[11] = bistrispropane buffer, pH 8, pH 8.0, read-out: Solubility pH 8.0
[12] = glycylglycine buffer, pH 3, pH 3.0, read-out: Solubility pH 3.0
[13] = glycylglycine buffer, pH 4, pH 4.0, 18 hours at room temperature, Table 2, read-out: Solubility pH 4.0
[14] = glycylglycine buffer, pH 4, pH 4.0, read-out: Solubility pH 4.0
[15] = glycylglycine buffer, pH 5, pH 5.0, read-out: Solubility pH 5.0

EC50 [1] [nM]	EC50 [2] [nM]	ThT pH 4.0 lag time ([3]; Table 8) [h]	ThT pH 4.0 lag time ([3]; Table 9) [h]	ThT pH 4.0 lag time ([3]; ThT fibrillation assay) [h]	ThT pH 4.0 lag time (h) ([3]; ThT fibrillation assay)	solubility at 18 h [4, 5] [µM]	solubility at 18 h [4, 6] [µM]	solubility at 18 h [4, 7] [µM]	solubility at 18 h [4, 8] [µM]	solubility at 18 h ([4]; bistrispropane buffer, pH 7, pH 7.0, Table 9, read-out: Solubility pH 7.0) [µM]	solubility at 18 h [4, 9] [µM]	solubility at 18 h ([4]; bistrispropane buffer, pH 7.5, pH 7.5, Table 9, read-out: Solubility pH 7.5) [µM]	solubility at 18 h [4, 10] [µM]	solubility at 18 h [4, 11] [µM]	solubility at 18 h [4, 12] [µM]	solubility at 18 h [4, 13] [µM]	solubility at 18 h [4, 14] [µM]	solubility at 18 h [4, 15] [µM]	SMILES
0.091	0.045	>45	>45	>45	>45	> 200	> 200	> 200	> 200	> 200	> 200	> 200	> 200	> 200	> 200	> 200	> 200	> 200	CC[C@H](C)[C@H](NC(=O)[C@@H]1CCCN1C(=O)CNC(=O)[C@H](Cc1ccccc1)NC(=O)[C@H](CC(N)=O)NC(=O)[C@H](CCC(N)=O)NC(=O)[C@H](CO)NC(=O)[C@H](CO)NC(=O)[C@H](Cc1c[nH]cn1)NC(=O)[C@H](Cc1c[nH]cn1)NC(=O)[C@H](CC(C)C)NC(=O)[C@H](Cc1ccccc1)NC(=O)[C@H](CCC(=O)O)NC(=O)[C@H](C)NC(=O)[C@H](CC(C)C)NC(=O)[C@H](CCCNC(=N)N)NC(=O)[C@H](CCC(N)=O)NC(=O)[C@@H](NC(=O)[C@H](C)NC(=O)[C@@H]1CSSC[C@H](NC(=O)[C@H](CCCCN)NC(=O)CC[C@H](NC(=O)CCCCCCCCCCCCCCCCCCC(=O)O)C(=O)O)C(=O)N[C@@H](CC(N)=O)C(=O)N[C@@H]([C@@H](C)O)C(=O)N[C@@H](C)C(=O)N[C@@H]([C@@H](C)O)C(=O)N1)[C@@H](C)O)C(=O)N[C@@H](CC(C)C)C(=O)N1CCC[C@H]1C(=O)N1CCC[C@H]1C(=O)N[C@H](C(=O)N[C@@H](CC(N)=O)C(=O)N[C@H](C(=O)NCC(=O)N[C@@H](CO)C(=O)N[C@@H](CCC(N)=O)C(=O)N[C@H](C(=O)N1CCC[C@H]1C(N)=O)[C@@H](C)O)C(C)C)[C@@H](C)O [Example 136, N-alpha-[(S)-4-Carboxy-4-(19-carboxynonadecanoylamino)butyryl]-[Glu14,His17,Gln21,Gln35,Pro37]-pramlintide] ({C20 diacid-γGlu}-KCNTATCATQRLAEFLHHSSQNFGPILPPTNVGSQTP-NH2; disulfide 2-7 (inferred))
0.121	0.072	29	–	29	29	192 (≈ 835 µg/mL)	> 200	> 200	> 200	–	> 200	–	> 200	> 200	> 200	> 200	> 200	> 200	CC[C@H](C)[C@H](NC(=O)[C@@H]1CCCN1C(=O)CNC(=O)[C@H](Cc1ccccc1)NC(=O)[C@H](CC(N)=O)NC(=O)[C@H](CCC(N)=O)NC(=O)[C@H](CO)NC(=O)[C@H](CO)NC(=O)[C@H](Cc1c[nH]cn1)NC(=O)[C@H](Cc1c[nH]cn1)NC(=O)[C@H](CC(C)C)NC(=O)[C@H](Cc1ccccc1)NC(=O)[C@H](CCC(=O)O)NC(=O)[C@H](C)NC(=O)[C@H](CC(C)C)NC(=O)[C@H](CCCNC(=N)N)NC(=O)[C@H](CCC(N)=O)NC(=O)[C@@H](NC(=O)[C@H](C)NC(=O)[C@@H]1CSSC[C@H](NC(=O)CNC(=O)CC[C@H](NC(=O)CCCCCCCCCCCCCCCCCCC(=O)O)C(=O)O)C(=O)N[C@@H](CC(N)=O)C(=O)N[C@@H]([C@@H](C)O)C(=O)N[C@@H](C)C(=O)N[C@@H]([C@@H](C)O)C(=O)N1)[C@@H](C)O)C(=O)N[C@@H](CC(C)C)C(=O)N1CCC[C@H]1C(=O)N1CCC[C@H]1C(=O)N[C@H](C(=O)N[C@@H](CC(N)=O)C(=O)N[C@H](C(=O)NCC(=O)N[C@@H](CO)C(=O)N[C@@H](CCC(N)=O)C(=O)N[C@H](C(=O)N1CCC[C@H]1C(N)=O)[C@@H](C)O)C(C)C)[C@@H](C)O [Example 137, N-alpha-[(S)-4-Carboxy-4-(19-carboxynonadecanoylamino)butyryl]-[Gly1,Glu14,His17,Gln21,Gln35,Pro37]-pramlintide] ({C20 diacid-γGlu}-GCNTATCATQRLAEFLHHSSQNFGPILPPTNVGSQTP-NH2; disulfide 2-7)
1.51	0.496	–	–	–	1.3	> 200	> 200	> 200	–	–	> 200	–	> 200	> 200	> 200	> 200	> 200	> 200	CC[C@H](C)[C@H](NC(=O)[C@@H]1CCCN1C(=O)CNC(=O)[C@H](Cc1ccccc1)NC(=O)[C@H](CC(N)=O)NC(=O)[C@H](CCC(N)=O)NC(=O)[C@H](CO)NC(=O)[C@H](CO)NC(=O)[C@H](Cc1c[nH]cn1)NC(=O)[C@@H](NC(=O)[C@H](CC(C)C)NC(=O)[C@H](Cc1ccccc1)NC(=O)[C@H](CCC(=O)O)NC(=O)[C@H](C)NC(=O)[C@H](CC(C)C)NC(=O)[C@H](CCCNC(=N)N)NC(=O)[C@H](CCC(N)=O)NC(=O)[C@@H](NC(=O)[C@H](C)NC(=O)[C@@H]1CSSC[C@H](NC(=O)[C@H](CCC(=O)O)NC(=O)CC[C@H](NC(=O)CCCCCCCCCCCCCCCCCCC(=O)O)C(=O)O)C(=O)N[C@@H](CC(N)=O)C(=O)N[C@@H]([C@@H](C)O)C(=O)N[C@@H](C)C(=O)N[C@@H]([C@@H](C)O)C(=O)N1)[C@@H](C)O)C(C)C)C(=O)N[C@@H](CC(C)C)C(=O)N1CCC[C@H]1C(=O)N1CCC[C@H]1C(=O)N[C@H](C(=O)N[C@@H](CC(N)=O)C(=O)N[C@H](C(=O)NCC(=O)N[C@@H](CO)C(=O)N[C@@H](CCC(N)=O)C(=O)N[C@H](C(=O)N1CCC[C@H]1C(N)=O)[C@@H](C)O)C(C)C)[C@@H](C)O [Example 138, N-alpha-[(S)-4-Carboxy-4-(19-carboxynonadecanoylamino)butyryl]-[Glu1,Glu14,Gln21,Gln35,Pro37]-pramlintide] ({C20 diacid-γGlu}-ECNTATCATQRLAEFLVHSSQNFGPILPPTNVGSQTP-NH2; disulfide 2-7)
0.107	0.0585	–	–	–	23.6	> 200	> 200	> 200	–	–	> 200	–	> 200	> 200	> 200	> 200	> 200	> 200	CC[C@H](C)[C@H](NC(=O)[C@@H]1CCCN1C(=O)CNC(=O)[C@H](Cc1ccccc1)NC(=O)[C@H](CC(N)=O)NC(=O)[C@H](CCC(N)=O)NC(=O)[C@H](CO)NC(=O)[C@H](CO)NC(=O)[C@H](Cc1c[nH]cn1)NC(=O)[C@@H](NC(=O)[C@H](CC(C)C)NC(=O)[C@H](Cc1ccccc1)NC(=O)[C@H](CCC(=O)O)NC(=O)[C@H](C)NC(=O)[C@H](CC(C)C)NC(=O)[C@H](CCCNC(=N)N)NC(=O)[C@H](CCC(N)=O)NC(=O)[C@@H](NC(=O)[C@H](C)NC(=O)[C@@H]1CSSC[C@H](NC(=O)[C@H](CCCCN)NC(=O)CC[C@H](NC(=O)CCCCCCCCCCCCCCCCCCC(=O)O)C(=O)O)C(=O)N[C@@H](CC(N)=O)C(=O)N[C@@H]([C@@H](C)O)C(=O)N[C@@H](C)C(=O)N[C@@H]([C@@H](C)O)C(=O)N1)[C@@H](C)O)C(C)C)C(=O)N[C@@H](CC(C)C)C(=O)N1CCC[C@H]1C(=O)N1CCC[C@H]1C(=O)N[C@H](C(=O)N[C@@H](CC(N)=O)C(=O)N[C@H](C(=O)NCC(=O)N[C@@H](CO)C(=O)N[C@@H](CCC(N)=O)C(=O)N[C@H](C(=O)N1CCC[C@H]1C(N)=O)[C@@H](C)O)C(C)C)[C@@H](C)O [Example 139, N-alpha-[(S)-4-Carboxy-4-(19-carboxynonadecanoylamino)butyryl]-[Glu14,Gln21,Gln35,Pro37]-pramlintide] ({C20 diacid-γGlu}-KCNTATCATQRLAEFLVHSSQNFGPILPPTNVGSQTP-NH2; disulfide 2-7 (inferred))
